Experimental data from article PMC3948353 (Chemistry & biology, 2013).

Assays:
[1] = molecular target: T1, arylacetamide deacetylase-like 1 (AADACL1) (Homo sapiens, UniProt Q6PIU2); assay: hydrolysis of exogenous HAG in human platelet lysate, blocked by JW480; type: cell-based
T1 sequence (Q6PIU2 1-408): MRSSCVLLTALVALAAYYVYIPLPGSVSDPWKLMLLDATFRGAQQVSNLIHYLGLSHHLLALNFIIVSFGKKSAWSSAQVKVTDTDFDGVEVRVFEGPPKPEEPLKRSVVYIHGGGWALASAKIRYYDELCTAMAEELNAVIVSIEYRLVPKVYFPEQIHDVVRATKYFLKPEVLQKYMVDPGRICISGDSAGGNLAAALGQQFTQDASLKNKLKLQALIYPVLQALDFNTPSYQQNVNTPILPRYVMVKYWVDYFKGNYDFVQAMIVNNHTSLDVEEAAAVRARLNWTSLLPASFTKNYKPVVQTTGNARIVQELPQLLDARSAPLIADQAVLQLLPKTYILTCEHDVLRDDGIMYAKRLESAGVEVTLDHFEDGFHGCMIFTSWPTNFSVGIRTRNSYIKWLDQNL

[2] = molecular target: T1, arylacetamide deacetylase-like 1 (AADACL1); assay: HAG hydrolysis activity in lysates of JW480-treated human platelets; type: cell-based

| SMILES | hydrolysis of exogenous HAG in human platelet lysate, blocked by JW480 [1] | % inhibition at 2 μM [2] |
| --- | --- | --- |
| CCCCCCCCCCCCCCCCOC[C@H](CO)OC(C)=O [HAG, 1-O-hexadecyl-2-O-acetyl-sn-glycerol] | AADACL1 also hydrolyzes HAG to its corresponding monoalkylglycerol ether (C16 MAGE) in human platelets |  |
| CC(C)c1ccccc1OC(=O)NCCc1ccc2ccccc2c1 [JW480] |  | 90 ± 0.56% inhibition at 2 |
